Source: PMC6491832, “Methylobacterium extorquens RSH Enzyme Synthesizes (p)ppGpp and pppApp in vitro and in vivo, and Leads to Discovery of pppApp Synthesis in Escherichia coli” (Frontiers in Microbiology, 2019)
Like-named read-outs stand apart in the source and are kept apart here.

Columns and labels:
[1] = biological target: T1, RelSeq1-385 (Streptococcus dysgalactiae, UniProt Q54089); format: biochemical; details: 8 mM ATP, 8 mM GTP, 16 mM MgCl2, 50 mM Tris-HCl pH 8.9, 37 °C, control reaction
T1 construct: gene relA; N-terminal catalytic half, residues 1-385; His8-SUMO tag removed by Ulp1; expressed in E. coli BL21(DE3) Rosetta

[2] = substrate: Nc1nc2c(ncn2[C@@H]2O[C@H](COP(=O)(O)OP(=O)(O)OP(=O)(O)O)[C@@H](O)[C@H]2O)c(=O)[nH]1; test: purified protein; format: biochemical, Methylorubrum extorquens; details: 8 mM ATP, GTP 1-8 mM, 8 mM CoCl2, 50 mM Tris-HCl pH 8.9, 37 °C, 2 h, 80 nM enzyme, pyrophosphate acceptor
[3] = substrate: Nc1ncnc2c1ncn2[C@@H]1O[C@H](COP(=O)(O)OP(=O)(O)OP(=O)(O)O)[C@@H](O)[C@H]1O; test: purified protein; format: biochemical, Methylorubrum extorquens; details: 8 mM GTP, ATP 0.25-2 mM, 8 mM CoCl2, 50 mM Tris-HCl pH 8.9, 37 °C, 2 h, 80 nM enzyme, pyrophosphate donor

T1 sequence (Q54089 1-385): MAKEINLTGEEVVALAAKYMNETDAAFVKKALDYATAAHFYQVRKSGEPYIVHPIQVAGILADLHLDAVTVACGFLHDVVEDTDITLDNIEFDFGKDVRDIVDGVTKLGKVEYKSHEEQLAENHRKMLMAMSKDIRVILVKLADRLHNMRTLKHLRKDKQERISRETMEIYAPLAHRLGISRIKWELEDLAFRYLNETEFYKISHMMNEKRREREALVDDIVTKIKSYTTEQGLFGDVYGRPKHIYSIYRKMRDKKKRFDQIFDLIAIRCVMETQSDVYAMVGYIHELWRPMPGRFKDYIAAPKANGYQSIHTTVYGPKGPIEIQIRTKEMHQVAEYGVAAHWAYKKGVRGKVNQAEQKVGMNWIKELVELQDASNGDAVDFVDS

Nc1nc2c(ncn2[C@@H]2O[C@H](COP(=O)(O)OP(=O)(O)OP(=O)(O)O)[C@@H](O)[C@H]2O)c(=O)[nH]1 [GTP]
pppGpp synthesis from [33P]gamma-ATP, two-dimensional TLC ([1]; pyrophosphate acceptor): ATP + GTP with RelSeq1-385 (to visualize pppGpp)

Nc1ncnc2c1ncn2[C@@H]1O[C@H](COP(=O)(O)OP(=O)(O)OP(=O)(O)O)[C@@H](O)[C@H]1O [ATP]
pppGpp synthesis from [33P]gamma-ATP, two-dimensional TLC ([1]; pyrophosphate donor): ATP + GTP with RelSeq1-385 (to visualize pppGpp)

B1: RSHMex1-352 (Methylorubrum extorquens AM1) (protein)
chain: MMRQYELVERVKRYNPAANEALLNRAYVYAMRAHGTQKRASGDPFFAHPLEVAAILTDLRLDDATIVAAVLHDTVEDTAATLDEIREIFGPEIGALVDGLTKLKRLDLVSKRAVQGENFRKLLLAVAEDVRVLLVKLADRLHNMRTLHFMRDDKRARIAEETLDIYAPLAGRMGMQELRDELEDLSFRTLKPEVYATITKRLEDLSAKSGSVIESIEHDLTARLAARGIAAHVKGRLKKPFSIWSKMERKSVAFEQLSDIVGFRVIVGTLAECYAALGVVHTSWPMVPGRYKDYVSTPKQNDYRSIHTTVIGPKRQRVELQIRTAEMDEIAEYGIAAHAHYKEAGKEGVEGE
notes: N-terminal catalytic half (hydrolase + synthetase domains, residues 1-352), CTD regulatory domain omitted; His8-SUMO tag removed by Ulp1; expressed in E. coli BL21(DE3) Rosetta
Km [2]: 3000 ± 290 µM | Km [3]: 390 ± 10 µM
